Measured values: the NIST ThermoML archive (doi:10.1021/je034203p)

Assay: xn = mol fraction of the nth substance listed
Details: 298.15 K, 101.3 kPa, Liquid; for viscosity: Capillary tube (Ostwald / Ubbelohde) method

CCCCO [butan-1-ol] + ClC=C(Cl)Cl
x2 = 0
Details	mass density [kg/m3]	viscosity [mPa·s]
–	806.3	2.538

ClC(Cl)(Cl)Cl [tetrachloromethane] + ClC=C(Cl)Cl
x2 = 0
Details	mass density [kg/m3]	viscosity [mPa·s]
–	1586.1	0.9096

ClC(Cl)=C(Cl)Cl [tetrachloroethene] + CCC(C)O
Details	mass density [kg/m3]	viscosity [mPa·s]
x1 = 0.0903	883.6	2.66
x1 = 0.1825	962.6	2.28
x1 = 0.2769	1042.5	1.944
x1 = 0.3734	1121.1	1.667
x1 = 0.4718	1201.2	1.453
x1 = 0.5733	1281.9	1.262
x1 = 0.6759	1362.6	1.119
x1 = 0.7817	1444.3	1.005
x1 = 0.8891	1525.8	0.9029
x1 = 1	1610.2	0.8474

ClC=C(Cl)Cl [trichloroethene] + CCO
Details	mass density [kg/m3]	viscosity [mPa·s]
x1 = 0.0673	852.4	1.047
x1 = 0.1397	918.2	0.9855
x1 = 0.2173	983.9	0.9272
x1 = 0.3018	1049.4	0.8651
x1 = 0.3932	1115.8	0.8082
x1 = 0.493	1182.4	0.7528
x1 = 0.602	1249.4	0.6984
x1 = 0.7215	1317.1	0.647
x1 = 0.8563	1385.6	0.5974
x1 = 1	1455.7	0.551

ClC(Cl)=C(Cl)Cl [tetrachloroethene] + CO
Details	mass density [kg/m3]	viscosity [mPa·s]
x1 = 0.042	868.7	0.5644
x1 = 0.0897	950.1	0.5806
x1 = 0.1446	1030.1	0.5981
x1 = 0.2082	1112	0.6209
x1 = 0.2828	1192.6	0.6449
x1 = 0.372	1274.4	0.6751
x1 = 0.4795	1355.9	0.7069
x1 = 0.6123	1439.7	0.7412
x1 = 0.7804	1524.3	0.7875
x1 = 1	1610.2	0.8474

ClC=C(Cl)Cl [trichloroethene] + CC(C)=O
Details	mass density [kg/m3]	viscosity [mPa·s]
x1 = 0.084	845.9	0.3412
x1 = 0.1712	912.3	0.3688
x1 = 0.2608	978.8	0.3958
x1 = 0.3544	1045	0.4244
x1 = 0.4519	1111.6	0.4501
x1 = 0.5528	1179	0.4723
x1 = 0.6582	1246.4	0.4906
x1 = 0.7671	1315.6	0.5107
x1 = 0.8815	1385.7	0.5309
x1 = 1	1455.7	0.551

ClC=C(Cl)Cl [trichloroethene] + CCOC(C)=O
Details	mass density [kg/m3]	viscosity [mPa·s]
x1 = 0.1086	944.2	0.4658
x1 = 0.2151	998.6	0.5023
x1 = 0.3189	1052.8	0.5302
x1 = 0.4219	1108.6	0.5564
x1 = 0.5226	1163.7	0.5685
x1 = 0.6215	1220.2	0.5705
x1 = 0.7185	1277.3	0.5681
x1 = 0.8143	1335.6	0.563
x1 = 0.908	1393.5	0.5589
x1 = 1	1455.7	0.551

ClC=C(Cl)Cl [trichloroethene] + CO
Details	mass density [kg/m3]	viscosity [mPa·s]
x1 = 0.0477	853.7	0.5565
x1 = 0.1014	920.3	0.5667
x1 = 0.1616	985.5	0.5738
x1 = 0.2308	1052.1	0.5833
x1 = 0.3105	1117.9	0.595
x1 = 0.4033	1184.5	0.6017
x1 = 0.5125	1251.2	0.6021
x1 = 0.643	1318.4	0.5908
x1 = 0.8021	1386.3	0.575
x1 = 1	1455.7	0.551

CC(C)O [propan-2-ol] + ClC=C(Cl)Cl
x2 = 0
Details	mass density [kg/m3]	viscosity [mPa·s]
–	784.3	2.044

CO [methanol] + ClC(Cl)=C(Cl)Cl
x2 = 0
Details	mass density [kg/m3]	viscosity [mPa·s]
–	788.1	0.5482

ClC(Cl)=C(Cl)Cl [tetrachloroethene] + CCC(C)=O
Details	mass density [kg/m3]	viscosity [mPa·s]
x1 = 0.0888	875.6	0.4563
x1 = 0.1798	955.1	0.5095
x1 = 0.2732	1034.4	0.5626
x1 = 0.3692	1114.1	0.6147
x1 = 0.4672	1193.9	0.6642
x1 = 0.5688	1275.5	0.7069
x1 = 0.6719	1356.5	0.7447
x1 = 0.7786	1441.7	0.7802
x1 = 0.8873	1524.2	0.8161
x1 = 1	1610.2	0.8474
